{"source": "patent US9139542B2", "about": "“Crystalline form of a substituted thiazolylacetic acid triethylamine salt” (THERAVANCE BIOPHARMA ANTIBIOTICS IP, LLC, priority 2013, dated 2015)", "key": {"[1]": {"assay": "Dynamic moisture sorption (DMS) assessment", "type": "physicochemical", "method": "A dynamic moisture sorption (DMS) assessment (also known as a moisture sorption-desorption profile) was performed using a VTI atmospheric microbalance, SGA-100 system (VTI Corp., Hialeah, Fla. 33016). A sample of crystalline (2Z)-2-(2-amino-5-chlorothiazol-4-yl)-2-(3-N-tert-butoxycarbonylaminopropoxyimino)acetic acid triethylamine salt (about 10 mg) was used and the humidity was set at the ambient value at the start of the analysis. A typical DMS analysis consisted of three scans: ambient to 5% relative humidity (RH), 5% RH to 90% RH, 90% RH to 5% RH at a scan rate of 5% RH/step. The mass was measured every two minutes and the RH was changed to the next value (+/−5% RH) when the mass of the sample was stable to within 0.01% for 5 consecutive points."}, "[2]": {"assay": "Thermogravimetric analysis (TGA)", "type": "physicochemical", "method": "Thermogravimetric analysis (TGA) was performed using a TA Instruments Model Q-500 module equipped with high resolution capability. Data were collected and analyzed using TA Instruments Thermal Solutions software. A sample of crystalline (2Z)-2-(2-amino-5-chlorothiazol-4-yl)-2-(3-N-tert -butoxycarbonylaminopropoxyimino)acetic acid triethylamine salt (about 10 mg) was placed onto a platinum pan and scanned with a high resolution-heating rate from ambient temperature to 300° C. The balance and furnace chambers were purged with nitrogen flows during use."}}, "data": [{"smiles": "CC(C)(C)OC(=O)NCCCO/N=C(\\C(=O)O)c1nc(N)sc1Cl.CCN(CC)CC", "note": "[crystalline form, (2Z)-2-(2-amino-5-chlorothiazol-4-yl)-2-(3-N-tert-butoxycarbonylaminopropoxyimino)acetic acid triethylamine salt]", "values": [{"measurement": "hygroscopicity (reversible moisture sorption/desorption profile)", "setting": "[1]; 5% RH to 90% RH to 5% RH", "result": "acceptable hygroscopicity"}, {"measurement": "weight gain (moisture sorption)", "setting": "[1]; humidity range of 5% RH to 60% RH", "result": "insignificant weight gain"}, {"measurement": "weight gain (moisture sorption)", "setting": "[1]; humidity range of 60% RH to 90% RH", "result": "about 5.56%"}, {"measurement": "moisture loss on initial drying (DMS)", "setting": "[1]; initial drying, ambient to 5% RH", "result": 0.56, "unit": "% by weight"}, {"measurement": "weight loss (TGA)", "setting": "[2]; above 120° C., likely post-melting evaporation of triethylamine and decomposition", "result": "about 50%"}, {"measurement": "weight loss (TGA)", "setting": "[2]; temperature range of from 20° C. to 120° C.", "result": "less than 0.25%"}]}]}
